Laboratory results taken from the supplement of paper PMC7017272.
± gives the standard deviation of the averaged measurements.

Key:
Settings in all cases: treatment time: 3 days
[1] = tested on: UT-SCC-24A; test: maximal % inhibition of viability relative to DMSO; higher = stronger effect
Method: (§1)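 HNSCC cell lines (500 cells/well, 384-well) were cultured on plastic, on top of (2D) or embedded (3D) in Matrigel or human leiomyoma matrix Myogel (500 ug/mL; Myogel 3D mixed with rat collagen I). Cells were treated for 3 days with 5 ten-fold concentrations of each drug, and viability was read by CellTiter-Glo. Viability was normalised to DMSO (0% inhibition) and 100 uM benzethonium chloride (100% inhibition) controls and fitted with the FIMM DSRT pipeline to give IC50 (nM), maximal % inhibition and the drug sensitivity score (DSS). Suffixes _1/_2/_3 on drug names are replicates.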

[2] = tested on: UT-SCC-106A; test: drug sensitivity score (DSS); higher = more sensitive; extreme values may be limits of the assay
In short: (§2)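 The FIMM pipeline was used to fit percent-inhibition dose–response curves, giving IC50, maximal inhibition and drug sensitivity score. Input data were CellTiter-Glo 2.0 luminescence readings, normalised to vehicle (0.1% DMSO) and cell-killing control wells, from HPV-negative HNSCC cell lines seeded at 500 cells/well in 384-well plates. Cells sat on plastic, on Matrigel or Myogel coatings (500 µg/mL), or within Matrigel or Myogel plus rat collagen I, and received compounds at five 10-fold concentrations for 3 days.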

[3] = tested on: UT-SCC-14; test: as above
In short: as §2

[4] = tested on: UT-SCC-24B; test: as above
In short: as §2

[5] = tested on: UT-SCC-28; test: as above
In short: as §2

[6] = tested on: UT-SCC-40; test: as above
In short: as §2

[7] = tested on: UT-SCC-42A; test: as above
In short: as §2

[8] = tested on: UT-SCC-42B; test: as above
In short: as §2

[9] = tested on: UT-SCC-44; test: as above
In short: as §2

[10] = tested on: UT-SCC-73; test: as above
In short: as §2

[11] = tested on: UT-SCC-81; test: as above
In short: as §2

[12] = tested on: UT-SCC-8; test: as above
In short: as §2

[13] = tested on: UT-SCC-106A; test: relative IC50 (midpoint of the fitted curve; maximal inhibition may be below 50%); higher = less potent
In short: as §2

[14] = tested on: UT-SCC-14; test: as above
In short: as §2

[15] = tested on: UT-SCC-42A; test: as above
In short: as §2

[16] = tested on: UT-SCC-42B; test: as above
In short: as §2

[17] = tested on: UT-SCC-44; test: as above
In short: as §2

[18] = tested on: UT-SCC-73; test: as above
In short: as §2

[19] = tested on: UT-SCC-8; test: as above
In short: as §2

[20] = tested on: UT-SCC-24A; test: relative IC50 (midpoint of the fitted curve; maximal inhibition may be below 50%); higher = less potent
Method: as §1

[21] = culture condition: embedded in Matrigel
[22] = culture condition: embedded in Myogel + collagen I
[23] = culture condition: on top of Matrigel
[24] = culture condition: on top of Myogel
[25] = culture condition: plastic 2D (no matrix)

## Cn1cnc2c(F)c(Nc3ccc(Br)cc3Cl)c(C(=O)NOCCO)cc21 [Selumetinib]
[1]; [21]
  maximal % inhibition of viability: 81.7 ± 2.1%
[1]; [22]
  maximal % inhibition of viability: 59.2 ± 2.4%
[1]; [23]
  maximal % inhibition of viability: 76.7 ± 1.4%
[1]; [24]
  maximal % inhibition of viability: 38.4 ± 3%
[1]; [25]
  maximal % inhibition of viability: 70.2 ± 7.2%
[2]; [21]
  drug sensitivity score: 14.6 ± 2 DSS
[2]; [22]
  drug sensitivity score: 0.867 ± 1.5 DSS
[2]; [23]
  drug sensitivity score: 16.1 ± 0.75 DSS
[2]; [24]
  drug sensitivity score: 1.03 ± 1.7 DSS
[2]; [25]
  drug sensitivity score: 15.7 ± 2.3 DSS
[3]; [21]
  drug sensitivity score: 7.13 ± 6.1 DSS
[3]; [22]
  drug sensitivity score: 5.17 ± 3.2 DSS
[3]; [23]
  drug sensitivity score: 7.17 ± 3 DSS
[3]; [24]
  drug sensitivity score: 3.5 ± 3.6 DSS
[3]; [25]
  drug sensitivity score: 0.833 ± 1.4 DSS
[4]; [21]
  drug sensitivity score: 18.9 ± 1.8 DSS
[4]; [22]
  drug sensitivity score: 18.2 ± 1.7 DSS
[4]; [23]
  drug sensitivity score: 18.6 ± 0.25 DSS
[4]; [24]
  drug sensitivity score: 17.6 ± 0.75 DSS
[4]; [25]
  drug sensitivity score: 21 ± 0.4 DSS
[5]; [21]
  drug sensitivity score: 8.07 ± 4.3 DSS
[5]; [22]
  drug sensitivity score: 4.4 ± 3.9 DSS
[5]; [23]
  drug sensitivity score: 6.2 ± 5.5 DSS
[5]; [25]
  drug sensitivity score: 3.8 ± 3.9 DSS
[6]; [21]
  drug sensitivity score: 22.6 ± 0.71 DSS
[6]; [22]
  drug sensitivity score: 17.6 ± 0.8 DSS
[6]; [23]
  drug sensitivity score: 20.7 ± 0.92 DSS
[6]; [24]
  drug sensitivity score: 11.2 ± 2.4 DSS
[6]; [25]
  drug sensitivity score: 12.6 ± 2.5 DSS
[7]; [21]
  drug sensitivity score: 10.9 ± 4.8 DSS
[7]; [22]
  drug sensitivity score: 4.23 ± 4.5 DSS
[7]; [23]
  drug sensitivity score: 14.4 ± 5 DSS
[7]; [24]
  drug sensitivity score: 9.23 ± 2 DSS
[7]; [25]
  drug sensitivity score: 10.8 ± 3 DSS
[8]; [21]
  drug sensitivity score: 16.5 ± 4.6 DSS
[8]; [23]
  drug sensitivity score: 8.67 ± 2.3 DSS
[8]; [24]
  drug sensitivity score: 2.13 ± 0.76 DSS
[8]; [25]
  drug sensitivity score: 2.33 ± 2 DSS
[9]; [21]
  drug sensitivity score: 15.8 ± 5.2 DSS
[9]; [22]
  drug sensitivity score: 4.83 ± 4.2 DSS
[9]; [23]
  drug sensitivity score: 12.3 ± 0.94 DSS
[9]; [24]
  drug sensitivity score: 8.17 ± 1.2 DSS
[9]; [25]
  drug sensitivity score: 7.8 ± 3.5 DSS
[10]; [21]
  drug sensitivity score: 21 ± 2.8 DSS
[10]; [22]
  drug sensitivity score: 13.5 ± 3.5 DSS
[10]; [23]
  drug sensitivity score: 20.2 ± 2.6 DSS
[10]; [24]
  drug sensitivity score: 15.2 ± 1.1 DSS
[10]; [25]
  drug sensitivity score: 17.9 ± 1.4 DSS
[11]; [21]
  drug sensitivity score: 24.4 ± 0.94 DSS
[11]; [22]
  drug sensitivity score: 7.33 ± 6.3 DSS
[11]; [23]
  drug sensitivity score: 19.9 ± 0.72 DSS
[11]; [24]
  drug sensitivity score: 9.93 ± 3.6 DSS
[11]; [25]
  drug sensitivity score: 7.87 ± 8 DSS
[12]; [21]
  drug sensitivity score: 10.1 ± 1.3 DSS
[12]; [22]
  drug sensitivity score: 1.37 ± 2.4 DSS
[12]; [23]
  drug sensitivity score: 9.63 ± 0.58 DSS
[12]; [24]
  drug sensitivity score: 10.3 ± 1.5 DSS
[12]; [25]
  drug sensitivity score: 5.63 ± 2.3 DSS
[13]; [21]
  relative IC50: 56.8 nM
[13]; [25]
  relative IC50: 56.3 nM
[14]; [21]
  relative IC50: 74.2 nM
[14]; [23]
  relative IC50: 279 nM
[15]; [22]
  relative IC50: 263 nM
[15]; [24]
  relative IC50: 111 nM
[16]; [21]
  relative IC50: 86.8 nM
[16]; [23]
  relative IC50: 266 nM
[16]; [24]
  relative IC50: 268 nM
[17]; [21]
  relative IC50: 95.2 nM
[17]; [23]
  relative IC50: 108 nM
[17]; [24]
  relative IC50: 151 nM
[18]; [21]
  relative IC50: 80 nM
[18]; [22]
  relative IC50: 78.3 nM
[18]; [23]
  relative IC50: 83.2 nM
[18]; [24]
  relative IC50: 122 nM
[18]; [25]
  relative IC50: 117 nM
[19]; [21]
  relative IC50: 163 nM
[19]; [23]
  relative IC50: 176 nM
[19]; [24]
  relative IC50: 139 nM
[20]; [24]
  relative IC50: 137 nM
[20]; [25]
  relative IC50: 87.9 nM
